This is an account of results in US20220213030A1, “AMINOGUANIDINE HYDRAZONES AS RETROMER STABILIZERS USEFUL FOR TREATING NEUROLOGICAL DISEASES” (OSPEDALE SAN RAFFAELE SRL, priority 2019, published 2022).

Assay [1] relates to Vps35, Vps26 and Vps29 mRNA. In words: Real time PCR of CRC genes in Neuro2a. Particulars: 10 μM, 48 hours. The class given is cell-based, mouse. The procedure: Compound 2a increases the stability of the retromer complex in vitro. We further validated this concept by measuring VPS35 degradation rates by a cycloheximide (CHX) chase assay. Neuro2a cells received vehicle or lead 2a (10 μM) for 24 hours, then CHX was added to the medium, and VPS35 levels were measured by western blot. […] As is the case with R55 (Mecozzi, Berman et al. 2014), compound 2a should not influence the transcription levels of CRC genes in Neuro2a cells.
Lumbar spinal tracts dissected from saline perfused mice or Neuro2a cells were lysed to extract total RNAs using the RNeasy Mini Kit (Qiagen) according to the manufacturer's recommendations, including DNase (Promega) digestion. We synthetized the cDNA using ThermoScript RT-PCR System (Invitrogen) and Random Hexamer (Invitrogen), according to the manufacturer's instructions. The LightCycler 480 System (Roche) and LightCycler 480 SYBR Green I Master Mix (Roche) were used for real-time PCR experiments. Normalization was obtained using the housekeeping gene Histone H3
(H3 F: 5′-[…]-3′ H3 R: 5′-[…]-3′). The following specific primers were used for gene expression analysis: […]

The subject of assay [2] is poly-ubiquitinated proteins. In words: Poly-ubiquitinated proteins in lumbar spinal cord of G93A mice. Format: in vivo, mouse. Conditions: 10 mg/kg, day 100. An excerpt: Ubiquitinated inclusions accumulate in MNs of sALS and fALS patients and in lumbar SCs of ALS mice (Kabashi 2001). High levels of ubiquitinated proteins may represent an overwhelmed response of MNs to protein misfolding and aggregation, as well as a reduction of lysosome functionality. We characterized poly-ubiquitinated proteins in lumbar SCs protein extracts by 10% denaturating PAGE. We included in our experiments protein extracts from Neuro2a cells treated with the proteasome inhibitor Bortezomib (BTZ), able to increase poly-ubiquitination, as an experimental control (FIG. 13A). […] We next scored ubiquitin MFI levels in ventral horn MNs of G93A mice. […] As previously observed in Neuro2a cells, the overexpression of G93A plasmids affects the Golgi apparatus, therefore we asked whether similar alterations can occur in G93A mice by labeling lumbar sections for the cis-Golgi matrix protein GM130.
Lumbar spinal cords were dissected from saline perfused mice and rapidly homogenized in the following lysis buffer: Tris-HCl 10 mM pH 8, EDTA pH 8 1 mM, NaCl 100 mM, NP40 1% and protease inhibitor cocktail (Sigma). […] Protein concentrations were measured by BCA protein assay kit (Thermofisher) according to the manufacturer's recommendations. […] Quantifications were done using the Image Lab 6.0.1 software (Bio-Rad). […]

The target in the next assay is VPS35 (Mus musculus, UniProt Q9EQH3+Q9QZ88). The assay is described as follows: VPS35 levels in Neuro2a cells by Western blot (screening of amino guanidine hydrazones). The class given is cell-based. Also on record: endogenous in cells; host or cells: Neuro2a. Conditions: 48 hours. As to the method: To functionally screen the majority of synthetized amino guanidine hydrazones of the invention and determine their effects on the retromer complex, we incubated Neuro2a cells with each synthetized molecule at the concentration of 10 μM.
The test was executed in triplicate for each tested compound of the invention, cells lysates were established after 48 hours' incubation, and levels of VPS35 were normalized on the housekeeping gene β-Actin by Western blot. We observed a preliminary SAR among the compounds.
Fold changes are calculated over normalized VPS35 levels measured in vehicle-treated cells.
Neuro2a cells were seeded on 12 wells multiwell at the concentration of 100 000 cells/well. Cells were incubated with each compound, including the standard R55, at 10 μM for 48 hours. Cells were then washed in PBS 1× and lysed in a buffer containing Tris-HCl 10 mM pH8, EDTA 1 mM pH8, NaCl 100 mM, NP40 1%, with protease inhibitor cocktail (Sigma) 1×. Using a cell scraper total lysates were collected from each well, quantified with BCA (BCA protein assay, Thermofisher). Five μg were resolved on precast 10% acrylamide gel (Biorad). Proteins were transferred to a PVDF membrane (Millipore) and western blot were performed using the following antibodies: goat αVPS35 (1:1000), mouse α-βActin (1:10000). Detection of proteins was obtained by a chemiluminescence detection kit (PerkinElmer).
In general terms: A western blot detects proteins with antibodies after separation by electrophoresis.

Entries after “also recorded” stand apart in the source; their conditions may differ.

Consider `N=C(N)NN=Cc1cccc(C=NNC(=N)N)c1` [Compound 2a, 1,3-Bis-amino guanidine phenyl hydrazone], for which the “mRNAs levels of Vps35, Vps26 and Vps29” value in assay [1] is reported as “did not change”. Moreover, in assay [2], the “MFI levels of ubiquitin fluorescence in ventral horn MNs” value is given as “vehicle-treated G93A MNs were higher than levels scored in compound 2a-treated G93A mice” and the “poly-ubiquitination (WB densitometry)” value is recorded as “substantially reduced”. Moreover, on VPS35 (10 μM, independent cultures n=3), the “Mean fold changes (VPS35 levels normalized on β-Actin, over vehicle-treated cells)” value is reported as 1.951. For the same molecule, on VPS35 (compounds at 10 μM), the “VPS35 levels (in words)” value is “able to consistently increase VPS35 levels with a limited variability among replicates; also recorded: increased”.
